Reference: patent publication US11046697B2, “Compounds and compositions useful for treating disorders related to NTRK” (BLUEPRINT MEDICINES CORPORATION, priority 2015, dated 2021)
Like-named read-outs stand apart in the source and are kept apart here.

Legend:
[1] = tested on: KM12 wild type colon carcinoma cell line harboring the TPM3-NTRK1 fusion protein; test: NTRK wild type cellular assay (CellTiter-Glo growth inhibition); assay type: cell-based; settings: 72 hr, CellTiter-Glo, read-out: KM12 (WT) IC50
Experimental: (§1) NTRK Wild Type and G595R Mutant Cellular Assays Protocol
(§2) KM12 wild type colon carcinoma cell line harboring the TPM3-NTRK1 fusion protein was obtained from the National Cancer Institute (NCI). This line has been previously shown to be dependent upon the NTRK activity derived from the NTRK fusion protein for growth and survival. […] Cells were first plated in 384-well plates at 1000 cells/well in complete media (10% FBS and 1% pen/strep) and incubated overnight at 37° C. Cells were then dosed with test articles at varying concentrations using the Bravo liquid handling system. […] Each compound was run in duplicate per plate. […] 72 hr after dosing, assay plates were developed using CellTiter-Glo (Promega) and resultant luminescence was read on the Envision plate reader. IC50 determinations were calculated using a 4-parameter curve fitting algorithm

[2] = tested on: KM12 Cliff (G595R) cell line; test: NTRK G595R mutant cellular assay (CellTiter-Glo growth inhibition); assay type: cell-based; settings: 72 hr, CellTiter-Glo
Experimental: as §1, §2

wild type NTRK1 enzyme = target: T1, wild type NTRK1 enzyme (Homo sapiens, UniProt P04629); test: NTRK1 Wild Type Assay at 1 mM ATP; assay type: biochemical; settings: 1 mM ATP; read-out: Enz NTRK1 IC50
T1 construct: purchased BPS Bioscience 40280
Experimental: NTRK1 Wild Type Assay at 1 mM ATP
The reaction was stopped by the addition of 70 μL of Stop buffer (100 mM HEPES pH 7.5, 0.015% Brij 35, 35 mM EDTA and 0.2% of Coating Reagent 3 (Caliper Lifesciences)). The plate was then read on a Caliper EZReader 2 (protocol settings: −1.7 psi, upstream voltage −500, downstream voltage −3000, post sample sip 35s).

T1 sequence (P04629 440-796 limits assumed): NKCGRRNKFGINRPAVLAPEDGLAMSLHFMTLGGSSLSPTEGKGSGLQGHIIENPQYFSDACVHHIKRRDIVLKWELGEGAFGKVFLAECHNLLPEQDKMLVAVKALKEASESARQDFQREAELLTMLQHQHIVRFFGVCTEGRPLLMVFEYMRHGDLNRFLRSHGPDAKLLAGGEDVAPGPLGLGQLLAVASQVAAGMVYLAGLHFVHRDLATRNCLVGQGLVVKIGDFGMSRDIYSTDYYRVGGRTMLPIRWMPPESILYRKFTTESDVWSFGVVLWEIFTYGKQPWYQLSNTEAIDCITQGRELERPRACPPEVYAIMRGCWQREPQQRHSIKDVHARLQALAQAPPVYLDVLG

Row | Structure (SMILES) | IC50 [1] | IC50 [2] | IC50 (wild type NTRK1 enzyme) | IC50 ([1]; Homo sapiens, KM12, 72 h) | IC50 ([2]; Homo sapiens, KM12, 72 h)
1 | CN(Cc1ccccc1)C(=O)c1n[nH]c2ncnc(N[C@@H]3CC[C@@H](O)[C@H]3O)c12 [Compound 131] | 100 to 1000 nM | 100 to 1000 nM | 100 to 1000 nM |  | 
2 | O=C(NCc1cc(F)ccc1F)c1n[nH]c2ncnc(NC3CC(F)(F)CC3O)c12 (stereo not drawn) [Compound 42] | > 1000 nM | > 1000 nM | 100 to 1000 nM |  | 
3 | O=C(c1n[nH]c2ncnc(N[C@@H]3C=C[C@@H](O)[C@H]3O)c12)N1C[C@@H](F)C[C@@H]1c1cc(F)cc(F)c1F [Compound 199] | < 10 nM | < 10 nM | 10 to 100 nM |  | 
4 | CC(NC(=O)c1n[nH]c2ncnc(NC3CCOCC3O)c12)c1cc(F)ccc1F (stereo not drawn) [Compound 31] | 100 to 1000 nM | 100 to 1000 nM | 100 to 1000 nM |  | 
5 | O=C(NCc1cc(F)ccc1F)c1n[nH]c2ncnc(N[C@@H]3CCC[C@@H](O)[C@H]3O)c12 [Compound 32] |  |  | 10 to 100 nM | 100 to 1000 nM | 100 to 1000 nM
6 | O=C(NC(CO)c1cc(F)ccc1F)c1n[nH]c2ncnc(NC3CCCC3O)c12 (stereo not drawn) [Compound 27] | 10 to 100 nM | 10 to 100 nM | < 10 nM |  | 
7 | N#C[C@H]1C[C@H](c2cc(F)ccc2F)N(C(=O)c2n[nH]c3ncnc(N[C@@H]4CCC[C@H]4O)c23)C1 [Compound 79] |  |  | < 10 nM | < 10 nM | 10 to 100 nM
8 | O=C(c1n[nH]c2ncnc(N[C@@H]3CC[C@@H](O)[C@H]3O)c12)N1CC(F)(F)C[C@@H]1c1cc(F)cc(F)c1 [Compound 108] |  |  | 10 to 100 nM | 100 to 1000 nM | 100 to 1000 nM
9 | CN(Cc1cc(F)ccc1C(F)(F)F)C(=O)c1n[nH]c2ncnc(N[C@@H]3CC[C@@H](O)[C@H]3O)c12 [Compound 99] |  |  | < 10 nM | < 10 nM | < 10 nM
10 | O=C(c1n[nH]c2ncnc(N[C@@H]3CCC[C@@H](O)[C@H]3O)c12)N1C[C@@H](F)C[C@@H]1c1cc(F)cc(F)c1F [Compound 224] |  |  | < 10 nM | < 10 nM | < 10 nM
11 | O=C(NCc1cc(F)ccc1Cl)c1n[nH]c2ncnc(N[C@@H]3CC[C@@H](O)[C@H]3O)c12 [Compound 36] |  |  | 10 to 100 nM | 100 to 1000 nM | 100 to 1000 nM
12 | CN(Cc1cc(F)cc(F)c1)C(=O)c1n[nH]c2ncnc(NC3CCC(O)C3O)c12 (stereo not drawn) [Compound 33] | 10 to 100 nM | 10 to 100 nM | 10 to 100 nM |  | 
13 | O=C(c1n[nH]c2ncnc(N[C@@H]3CC(F)(F)[C@@H](O)[C@H]3O)c12)N1C[C@@H](F)C[C@@H]1c1cc(F)ccc1F [Compound 227] | < 10 nM | < 10 nM | < 10 nM |  | 
14 | O=C(c1n[nH]c2ncnc(N[C@@H]3CC[C@@H](O)[C@H]3O)c12)N1CCC[C@@H]1c1cc(F)ccc1F [Compound 71] |  |  | 10 to 100 nM | 10 to 100 nM | 100 to 1000 nM
15 | CCN(Cc1cc(F)ccc1F)C(=O)c1n[nH]c2ncnc(NC3CCCC3O)c12 (stereo not drawn) [Compound 26] | 10 to 100 nM | 100 to 1000 nM | 10 to 100 nM |  | 
16 | O=C(NCc1cc(F)ccc1F)c1n[nH]c2ncnc(N[C@@H]3[C@H]4C[C@H]4C[C@H]3O)c12 [Compound 3] |  |  | > 1000 nM | > 1000 nM | > 1000 nM
17 | COc1ncc(F)cc1[C@H]1C[C@H](F)CN1C(=O)c1n[nH]c2ncnc(N[C@@H]3CCOC[C@H]3O)c12 [Compound 190] |  |  | < 10 nM | 10 to 100 nM | 10 to 100 nM
18 | O=C(NCc1cc(F)ccc1F)c1n[nH]c2ncnc(NC3CC(F)(F)CC3O)c12 (stereo not drawn) [Compound 43] | 10 to 100 nM | 100 to 1000 nM | 10 to 100 nM |  | 

Row | Structure (SMILES) | IC50 [1] | IC50 [2] | IC50 (wild type NTRK1 enzyme) | IC50 ([1]; Homo sapiens, KM12, 72 h) | IC50 ([2]; Homo sapiens, KM12, 72 h)
19 | O=C(c1n[nH]c2ncnc(NC3CC(F)CC3O)c12)N1CC(F)CC1c1cc(F)cc(F)c1F (stereo not drawn) [Compound 208] |  |  | < 10 nM | < 10 nM | < 10 nM
20 | O=C(c1n[nH]c2ncnc(NC3CCCC3O)c12)N1CC(F)CC1c1cncc(F)c1 (stereo not drawn) [Compound 46] | < 10 nM | < 10 nM | < 10 nM |  | 
21 | O=C(c1n[nH]c2ncnc(N[C@@H]3C[C@@H](O)C[C@H]3O)c12)N1C[C@@H](F)C[C@@H]1c1cc(F)ccc1F [Compound 86] |  |  | < 10 nM | < 10 nM | < 10 nM
22 | COc1c(F)cc(F)cc1[C@H]1C[C@H](F)CN1C(=O)c1n[nH]c2ncnc(N[C@@H]3COC[C@@H](O)[C@H]3O)c12 [Compound 236] |  |  | < 10 nM | < 10 nM | 10 to 100 nM
23 | CN(Cc1cc(F)cnc1Cl)C(=O)c1n[nH]c2ncnc(NC3CCOCC3O)c12 (stereo not drawn) [Compound 150] | 10 to 100 nM | 10 to 100 nM | 10 to 100 nM |  | 
24 | O=C(c1n[nH]c2ncnc(NC3CCOCC3O)c12)N1CC(F)CC1c1cc(F)ccc1OC(F)(F)F (stereo not drawn) [Compound 241] | < 10 nM | < 10 nM | < 10 nM |  | 
25 | CS(=O)(=O)[C@H]1C[C@@H](O)[C@H](Nc2ncnc3[nH]nc(C(=O)NCc4cc(F)ccc4F)c23)C1 [Compound 97, N-(2,5-difluorobenzyl)-4-(((1R,2R,4R)-2-hydroxy-4-(methylsulfonyl)cyclopentyl)amino)-1H-pyrazolo[3,4-d]pyrimidine-3-carboxamide] |  |  | < 10 nM | 10 to 100 nM | 100 to 1000 nM
26 | CS(=O)(=O)C1CC(O)C(Nc2ncnc3[nH]nc(C(=O)N4CC(F)CC4c4cc(F)ccc4F)c23)C1 (stereo not drawn) [Compound 116] |  |  | < 10 nM | < 10 nM | < 10 nM
27 | O=C(c1n[nH]c2ncnc(N[C@H]3[C@H](O)[C@H](O)[C@@H]4C[C@@H]43)c12)N1C[C@@H](F)C[C@@H]1c1cc(F)cc(Cl)c1 [Compound 214] |  |  | < 10 nM | < 10 nM | < 10 nM
28 | [2H]C([2H])([2H])N(Cc1cc(F)ccc1F)C(=O)c1n[nH]c2ncnc(N[C@@H]3COCC[C@H]3O)c12 [Compound 39] |  |  | < 10 nM | 10 to 100 nM | 10 to 100 nM
29 | CN(Cc1cc(F)cnc1Cl)C(=O)c1n[nH]c2ncnc(N[C@@H]3CCC[C@@H](O)[C@H]3O)c12 [Compound 161] | 10 to 100 nM | 10 to 100 nM | 10 to 100 nM |  | 
30 | O=C(c1n[nH]c2ncnc(NC3CCCC(O)C3O)c12)N1CC(F)CC1c1cccc(F)c1F (stereo not drawn) [Compound 193] | 10 to 100 nM | 10 to 100 nM | < 10 nM |  | 
31 | O=C(NCc1cc(F)ccc1Cl)c1n[nH]c2ncnc(N[C@@H]3COCC[C@H]3O)c12 [Compound 37] | 100 to 1000 nM | 100 to 1000 nM | 10 to 100 nM |  | 
32 | O=C(c1n[nH]c2ncnc(N[C@@H]3C[C@@H](C(F)F)[C@@H](O)[C@H]3O)c12)N1C[C@@H](F)C[C@@H]1c1cc(F)ccc1F [Compound 114] |  |  | < 10 nM | < 10 nM | < 10 nM
33 | COc1c(F)cc(F)cc1[C@H]1C[C@H](F)CN1C(=O)c1n[nH]c2ncnc(N[C@H]3[C@H](O)[C@H](O)[C@@H]4C[C@@H]43)c12 [Compound 233] | < 10 nM | < 10 nM | < 10 nM |  | 
34 | CN(Cc1cc(Cl)ccc1F)C(=O)c1n[nH]c2ncnc(N[C@@H]3CC[C@@H](O)[C@H]3O)c12 [Compound 148] |  |  | < 10 nM | < 10 nM | < 10 nM
35 | O=C(c1n[nH]c2ncnc(N[C@H]3[C@H](O)[C@H](O)[C@@H]4C[C@@H]43)c12)N1C[C@@H](F)C[C@@H]1c1cc(F)ccc1Cl [Compound 213] |  |  | < 10 nM | < 10 nM | < 10 nM
